Publication PMC7206119, “RIP1 inhibition blocks inflammatory diseases but not tumor growth or metastases” (Cell Death and Differentiation, 2019)

Key:
Assay in all cases: biochemical
Design in all cases: DiscoverX kinase panel, active-site competition binding (KINOMEscan type), percent of control at one concentration
Conditions in all cases: competition binding, percent of control
CAMKK2 = CAMKK2 (Homo sapiens, UniProt Q96RR4)
Text: (§1) To investigate the potential therapeutic benefit of inhibiting RIP1, we developed GNE684 or (S)-N-((S)-7-methoxy-1-methyl-2-oxo-2,3,4,5-tetrahydro-1H-pyrido[3,4-b]azepin-3-yl)-5-phenyl-6,7-dihydro-5H-pyrrolo[1,2-b][1,2,4]triazole-2-carboxamide with cross-species potency against RIP1, exquisite kinase selectivity, and favorable pharmacological properties (Fig. 1a–h, S1, Tables S1 and S2, SI file 1). […] (Fig. 1b, S1, and Table S1). […] GNE684 inhibited human RIP1 potently in vitro, and mouse and rat RIP1 with slightly less potency (Fig. 1d). Accordingly, it inhibited TNF-induced necroptosis in human HT-29, mouse L929, or rat H9c2 cells (Fig. 1e). The cellular potency of GNE684 was confirmed in a human whole blood assay using TBZ (TNF, IAP antagonist BV6, and pan-caspase inhibitor zVAD) or LZ (LPS plus zVAD) to trigger necroptosis and the release of IL-1α and IL-1β (Fig. 1f).

CDC2L2 = target: T1, CDC2L2 (Homo sapiens, UniProt Q9UQ88)
T1 construct: gene CDK11A
Text: as §1

CSNK1A1 = CSNK1A1 (Homo sapiens, UniProt P48729)
Text: as §1

DAPK2 = DAPK2 (Homo sapiens, UniProt Q9UIK4)
Chain of DAPK2 (Q9UIK4 whole entry): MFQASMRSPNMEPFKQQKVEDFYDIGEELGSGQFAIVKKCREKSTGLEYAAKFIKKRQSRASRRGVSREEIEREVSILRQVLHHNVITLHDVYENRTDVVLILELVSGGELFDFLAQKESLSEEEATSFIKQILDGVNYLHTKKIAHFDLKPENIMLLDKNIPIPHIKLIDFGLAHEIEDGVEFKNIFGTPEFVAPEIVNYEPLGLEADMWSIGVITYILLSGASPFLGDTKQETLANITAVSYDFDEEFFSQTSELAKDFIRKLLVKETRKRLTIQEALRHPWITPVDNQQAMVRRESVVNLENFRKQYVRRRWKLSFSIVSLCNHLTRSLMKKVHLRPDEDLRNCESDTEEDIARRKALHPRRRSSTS
Text: as §1

EPHA4 = EPHA4 (Homo sapiens, UniProt P54764)
Text: as §1

FLT3(D835H) = FLT3(D835H) (Homo sapiens, UniProt P36888, D835H)
Text: as §1

GSK3A = GSK3A (Homo sapiens, UniProt P49840)
Text: as §1

MAP4K5 = MAP4K5 (Homo sapiens, UniProt Q9Y4K4)
Chain of MAP4K5 (Q9Y4K4 whole entry): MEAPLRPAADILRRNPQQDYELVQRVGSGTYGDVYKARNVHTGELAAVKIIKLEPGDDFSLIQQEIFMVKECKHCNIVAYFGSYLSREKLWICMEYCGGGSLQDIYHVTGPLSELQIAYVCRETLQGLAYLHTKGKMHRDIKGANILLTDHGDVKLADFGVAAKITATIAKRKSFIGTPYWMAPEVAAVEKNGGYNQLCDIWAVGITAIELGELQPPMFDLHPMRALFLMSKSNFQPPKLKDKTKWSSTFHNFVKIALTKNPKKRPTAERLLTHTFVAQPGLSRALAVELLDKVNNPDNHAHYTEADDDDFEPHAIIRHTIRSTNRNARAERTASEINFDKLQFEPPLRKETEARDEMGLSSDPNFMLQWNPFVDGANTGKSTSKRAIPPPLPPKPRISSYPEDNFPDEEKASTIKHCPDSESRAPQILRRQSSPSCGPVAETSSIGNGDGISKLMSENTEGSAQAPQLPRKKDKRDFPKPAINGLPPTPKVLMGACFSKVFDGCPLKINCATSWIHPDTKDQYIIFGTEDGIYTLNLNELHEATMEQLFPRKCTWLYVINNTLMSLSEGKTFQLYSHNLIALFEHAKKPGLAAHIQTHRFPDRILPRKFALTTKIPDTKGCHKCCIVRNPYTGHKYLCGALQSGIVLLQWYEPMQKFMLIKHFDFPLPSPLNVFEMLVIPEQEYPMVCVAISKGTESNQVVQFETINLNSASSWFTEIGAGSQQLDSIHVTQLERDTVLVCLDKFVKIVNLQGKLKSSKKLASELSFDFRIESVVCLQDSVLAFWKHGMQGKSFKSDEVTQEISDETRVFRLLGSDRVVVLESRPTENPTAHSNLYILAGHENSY
Text: as §1

MARK2 = MARK2 (Homo sapiens, UniProt Q7KZI7)
Chain of MARK2 (Q7KZI7 whole entry): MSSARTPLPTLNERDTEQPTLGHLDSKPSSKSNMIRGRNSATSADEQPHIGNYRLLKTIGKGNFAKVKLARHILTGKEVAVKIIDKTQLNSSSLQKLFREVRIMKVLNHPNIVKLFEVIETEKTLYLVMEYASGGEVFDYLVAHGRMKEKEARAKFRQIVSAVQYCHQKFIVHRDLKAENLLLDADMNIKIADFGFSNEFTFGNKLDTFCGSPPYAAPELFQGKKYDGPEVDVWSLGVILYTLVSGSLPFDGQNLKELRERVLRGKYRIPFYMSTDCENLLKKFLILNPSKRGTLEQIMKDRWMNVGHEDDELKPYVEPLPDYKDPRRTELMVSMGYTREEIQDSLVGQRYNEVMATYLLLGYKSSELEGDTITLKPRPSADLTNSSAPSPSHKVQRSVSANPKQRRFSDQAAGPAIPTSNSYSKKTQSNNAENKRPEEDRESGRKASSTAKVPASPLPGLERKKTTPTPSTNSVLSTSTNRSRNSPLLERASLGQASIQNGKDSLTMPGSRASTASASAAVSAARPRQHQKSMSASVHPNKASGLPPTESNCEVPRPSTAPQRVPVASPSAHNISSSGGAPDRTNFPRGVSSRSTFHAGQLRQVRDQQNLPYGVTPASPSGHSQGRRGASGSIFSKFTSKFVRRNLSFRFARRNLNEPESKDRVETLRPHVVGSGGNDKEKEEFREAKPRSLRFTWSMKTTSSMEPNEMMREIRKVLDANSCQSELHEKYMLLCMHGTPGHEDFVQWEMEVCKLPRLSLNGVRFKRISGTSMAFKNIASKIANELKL
Text: as §1

MARK3 = MARK3 (Homo sapiens, UniProt P27448)
Text: as §1

MET(M1250T) = MET(M1250T) (Homo sapiens, UniProt P08581, M1250T)
Text: as §1

MST1 = target: T2, MST1 (Homo sapiens, UniProt Q13043)
T2 construct: gene STK4
Text: as §1

NEK3 = NEK3 (Homo sapiens, UniProt P51956)
Text: as §1

PDPK1 = PDPK1 (Homo sapiens, UniProt O15530)
Text: as §1

PLK1 = PLK1 (Homo sapiens, UniProt P53350)
Chain of PLK1 (P53350 whole entry): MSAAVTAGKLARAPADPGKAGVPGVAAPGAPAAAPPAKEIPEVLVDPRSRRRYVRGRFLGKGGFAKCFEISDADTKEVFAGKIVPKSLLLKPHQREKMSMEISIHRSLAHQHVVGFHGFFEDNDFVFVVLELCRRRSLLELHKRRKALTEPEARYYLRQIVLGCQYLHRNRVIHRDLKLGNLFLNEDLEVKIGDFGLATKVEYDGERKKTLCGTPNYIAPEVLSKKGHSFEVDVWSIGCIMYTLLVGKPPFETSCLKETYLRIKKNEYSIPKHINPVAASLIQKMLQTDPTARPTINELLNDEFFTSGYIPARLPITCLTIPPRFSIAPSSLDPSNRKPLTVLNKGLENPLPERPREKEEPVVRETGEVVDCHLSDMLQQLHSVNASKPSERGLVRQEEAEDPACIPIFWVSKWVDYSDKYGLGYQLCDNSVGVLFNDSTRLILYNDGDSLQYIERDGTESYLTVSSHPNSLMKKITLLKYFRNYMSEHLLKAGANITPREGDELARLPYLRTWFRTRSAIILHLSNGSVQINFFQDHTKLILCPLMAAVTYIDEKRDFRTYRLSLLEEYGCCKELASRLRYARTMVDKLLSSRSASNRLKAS
Text: as §1

PRKD3 = PRKD3 (Homo sapiens, UniProt O94806)
Chain of PRKD3 (O94806 whole entry): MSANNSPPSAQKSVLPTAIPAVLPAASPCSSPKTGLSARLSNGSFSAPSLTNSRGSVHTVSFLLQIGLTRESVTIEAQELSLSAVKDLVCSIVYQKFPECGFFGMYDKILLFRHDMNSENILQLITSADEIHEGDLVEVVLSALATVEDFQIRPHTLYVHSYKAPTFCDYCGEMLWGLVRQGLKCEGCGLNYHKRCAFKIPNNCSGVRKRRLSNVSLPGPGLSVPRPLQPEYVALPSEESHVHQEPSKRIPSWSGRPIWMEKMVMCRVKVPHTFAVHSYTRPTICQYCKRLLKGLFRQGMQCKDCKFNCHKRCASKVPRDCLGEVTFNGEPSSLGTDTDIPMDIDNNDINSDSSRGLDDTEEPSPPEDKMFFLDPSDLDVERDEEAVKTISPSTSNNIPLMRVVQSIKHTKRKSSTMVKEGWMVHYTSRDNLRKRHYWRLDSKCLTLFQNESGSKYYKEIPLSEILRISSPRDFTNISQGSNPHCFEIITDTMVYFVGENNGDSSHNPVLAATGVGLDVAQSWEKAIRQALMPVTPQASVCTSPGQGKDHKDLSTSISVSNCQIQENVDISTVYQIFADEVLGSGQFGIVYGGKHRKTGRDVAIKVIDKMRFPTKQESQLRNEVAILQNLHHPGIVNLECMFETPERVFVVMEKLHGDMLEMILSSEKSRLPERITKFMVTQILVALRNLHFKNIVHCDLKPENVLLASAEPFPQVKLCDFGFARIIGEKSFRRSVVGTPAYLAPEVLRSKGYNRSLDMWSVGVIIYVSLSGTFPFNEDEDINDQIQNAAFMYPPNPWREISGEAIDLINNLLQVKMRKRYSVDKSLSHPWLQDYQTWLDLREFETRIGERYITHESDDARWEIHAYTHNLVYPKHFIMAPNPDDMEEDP
Text: as §1

RET = RET (Homo sapiens, UniProt P07949)
Text: as §1

[1] = target: T3, RSK2(Kin.Dom.2-C-terminal) (Homo sapiens, UniProt P51812)
T3 construct: gene RPS6KA3; Kin.Dom.2-C-terminal
Text: as §1

[2] = target: T4, RSK3(Kin.Dom.1-N-terminal) (Homo sapiens, UniProt Q15349)
T4 construct: gene RPS6KA2; Kin.Dom.1-N-terminal
T4 sequence (Q15349 whole entry): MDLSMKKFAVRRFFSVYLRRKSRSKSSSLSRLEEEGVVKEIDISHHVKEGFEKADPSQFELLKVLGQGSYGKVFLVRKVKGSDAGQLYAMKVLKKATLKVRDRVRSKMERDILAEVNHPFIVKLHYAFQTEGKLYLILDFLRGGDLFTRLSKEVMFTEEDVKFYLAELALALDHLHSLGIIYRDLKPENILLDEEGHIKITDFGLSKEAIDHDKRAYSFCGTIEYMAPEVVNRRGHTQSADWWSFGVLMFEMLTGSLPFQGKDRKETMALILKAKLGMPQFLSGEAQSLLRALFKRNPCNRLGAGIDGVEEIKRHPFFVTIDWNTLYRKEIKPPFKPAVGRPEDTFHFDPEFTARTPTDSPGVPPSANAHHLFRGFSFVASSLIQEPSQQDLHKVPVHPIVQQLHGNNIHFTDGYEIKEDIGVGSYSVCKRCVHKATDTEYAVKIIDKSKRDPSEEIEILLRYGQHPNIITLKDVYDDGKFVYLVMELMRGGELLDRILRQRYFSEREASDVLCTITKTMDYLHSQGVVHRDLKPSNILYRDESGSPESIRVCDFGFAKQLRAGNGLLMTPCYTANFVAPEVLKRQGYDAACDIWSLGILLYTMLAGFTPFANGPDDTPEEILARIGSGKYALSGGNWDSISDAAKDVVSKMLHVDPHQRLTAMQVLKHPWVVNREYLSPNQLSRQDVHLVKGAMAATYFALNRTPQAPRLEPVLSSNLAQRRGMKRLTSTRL
Text: as §1

SgK110 = target: T5, SgK110 (Homo sapiens, UniProt P0C264)
T5 construct: gene SBK3
Text: as §1

YANK3 = target: T6, YANK3 (Homo sapiens, UniProt Q86UX6)
T6 construct: gene STK32C
Text: as §1

Chain of CAMKK2 (Q96RR4 whole entry): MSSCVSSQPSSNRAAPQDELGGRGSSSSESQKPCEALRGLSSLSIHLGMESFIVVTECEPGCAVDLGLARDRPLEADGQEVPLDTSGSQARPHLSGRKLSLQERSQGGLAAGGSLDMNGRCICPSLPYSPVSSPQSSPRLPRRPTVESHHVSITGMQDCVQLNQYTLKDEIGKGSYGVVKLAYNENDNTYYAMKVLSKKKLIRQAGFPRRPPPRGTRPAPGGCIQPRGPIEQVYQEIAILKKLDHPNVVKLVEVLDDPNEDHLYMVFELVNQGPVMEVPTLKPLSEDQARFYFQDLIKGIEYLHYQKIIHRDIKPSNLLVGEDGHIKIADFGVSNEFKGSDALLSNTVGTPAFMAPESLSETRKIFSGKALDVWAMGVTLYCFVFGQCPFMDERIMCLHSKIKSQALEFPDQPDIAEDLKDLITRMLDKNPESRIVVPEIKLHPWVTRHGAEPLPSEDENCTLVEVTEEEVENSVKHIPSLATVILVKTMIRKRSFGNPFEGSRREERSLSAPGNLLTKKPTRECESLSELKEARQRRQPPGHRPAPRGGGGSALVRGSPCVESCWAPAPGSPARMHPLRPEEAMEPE

COc1cc2c(cn1)N(C)C(=O)[C@@H](NC(=O)c1nc3n(n1)[C@H](c1ccccc1)CC3)CC2 [GNE684, (S)-N-((S)-7-methoxy-1-methyl-2-oxo-2,3,4,5-tetrahydro-1H-pyrido[3,4-b]azepin-3-yl)-5-phenyl-6,7-dihydro-5H-pyrrolo[1,2-b][1,2,4]triazole-2-carboxamide]
remaining binding at 10 µM (CAMKK2): 100%
remaining binding at 10 µM (CDC2L2): 98%
remaining binding at 10 µM (CSNK1A1): 87%
remaining binding at 10 µM (DAPK2): 74%
remaining binding at 10 µM (EPHA4): 94%
remaining binding at 10 µM (FLT3(D835H)): 94%
remaining binding at 10 µM (GSK3A): 63%
remaining binding at 10 µM (MAP4K5): 91%
remaining binding at 10 µM (MARK2): 100%
remaining binding at 10 µM (MARK3): 100%
remaining binding at 10 µM (MET(M1250T)): 100%
remaining binding at 10 µM (MST1): 85%
remaining binding at 10 µM (NEK3): 94%
remaining binding at 10 µM (PDPK1): 91%
remaining binding at 10 µM (PLK1): 79%
remaining binding at 10 µM (PRKD3): 100%
remaining binding at 10 µM (RET): 98%
remaining binding at 10 µM [1]: 85%
remaining binding at 10 µM [2]: 92%
remaining binding at 10 µM (SgK110): 67%
remaining binding at 10 µM (YANK3): 93%
